In ChEMBL document CHEMBL1201862, “PubChem BioAssay data set” (2004):
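Five compound concentrations were applied to cells in 96-well plates for 48 hours; endpoints were derived by simple linear interpolation of the resulting dose-response curve. At the GI50, growth is halved.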 Activity calls are given as the source filed them. Cut-off read from the data, not from the text of the source: active = GI50 up to about 1.1 µM and inactive = higher. Bridge positions count the residues as written; N and C are the ends. Where a SMILES comes first, the peptide text is derived from it. Square brackets hold non-standard residues; d marks the D form. Peptide text beside a SMILES is read from it. I, II: the chains in the order shown. The star is where a group is joined. * marks the point of attachment. Quinoxaline2carbonyl = O=C(c1cnc2ccccc2n1)*; NMeV = CN[CH](C(=O)O)C(C)C; NMeC = CN[CH](CS)C(=O)O; Boc = CC(C)(C)OC(=O)*; nBu = CCCC*

Key:
Assay in all cases: growth of human tumour cells (NCI), 48 h
HL-60 = system: HL-60
K562 = system: K562
SF-539 = system: SF-539
HT-29 = system: HT-29
A498 = system: A498
SNB-78 = system: SNB-78
HCC 2998 = system: HCC 2998
KM-20L2 = system: KM-20L2
HCT-116 = system: HCT-116
HOP-18 = system: HOP-18
HOP-62 = system: HOP-62
SN12C = system: SN12C
SF-268 = system: SF-268
NCI/ADR-RES = system: NCI/ADR-RES
Hs-578T = system: Hs-578T
MDA-MB-435 = system: MDA-MB-435
BT-549 = system: BT-549
MDA-MB-231 = system: MDA-MB-231
PC-3 = system: PC-3
XF498 = system: XF498

Compound | GI50 (HL-60) | GI50 (K562) | GI50 (SF-539) | GI50 (HT-29) | GI50 (A498) | GI50 (SNB-78) | GI50 (HCC 2998) | GI50 (KM-20L2) | GI50 (HCT-116) | GI50 (HOP-18) | GI50 (HOP-62) | GI50 (SN12C) | GI50 (SF-268) | GI50 (NCI/ADR-RES) | GI50 (Hs-578T) | GI50 (MDA-MB-435) | GI50 (BT-549) | GI50 (MDA-MB-231) | GI50 (PC-3) | GI50 (XF498)
Cc1ccc(N2C(=O)C(=CN)C(=O)N(c3ccc(C)cc3)C2=O)cc1 | > 100 µM (inactive) | > 100 µM (inactive) | > 100 µM (inactive) | > 100 µM (inactive) | 84.9 µM (inactive) | > 100 µM (inactive) | 10 µM (inactive) | > 100 µM (inactive) | > 100 µM (inactive) | > 100 µM (inactive) | 44.2 µM (inactive) | 51.6 µM (inactive) | > 100 µM (inactive) | – | – | – | – | – | – | –
Cc1ccc(S(=O)(=O)C2=c3ncccc3=C3C(=O)c4ccccc4C(=O)C32)cc1 (configuration not stated) | 99.5 µM (inactive) | > 95.9 µM (inactive) | 2.75 µM (inactive) | > 100 µM (inactive) | 5.81 µM (inactive) | > 100 µM (inactive) | > 10 µM (inactive) | – | 71.6 µM (inactive) | > 100 µM (inactive) | 4.71 µM (inactive) | > 100 µM (inactive) | 46.7 µM (inactive) | 49.3 µM (inactive) | 22.6 µM (inactive) | > 100 µM (inactive) | 39.8 µM (inactive) | 29.6 µM (inactive) | 61.4 µM (inactive) | –
O=C1c2ccccc2C(=O)C1(O)c1c[nH]c2ccccc12 | > 100 µM (inactive) | > 100 µM (inactive) | > 100 µM (inactive) | > 100 µM (inactive) | – | > 100 µM (inactive) | – | > 100 µM (inactive) | > 100 µM (inactive) | – | > 100 µM (inactive) | – | > 100 µM (inactive) | – | – | – | – | – | – | > 100 µM (inactive)
O=C1C(S(=O)(=O)c2ccccc2)=C(CS(=O)(=O)c2ccccc2)[C@@H](OCc2ccccc2)[C@@H]1OCc1ccccc1 | 17.1 µM (inactive) | 14.4 µM (inactive) | 19.2 µM (inactive) | 13.5 µM (inactive) | 23.3 µM (inactive) | – | 18.9 µM (inactive) | – | 13.6 µM (inactive) | – | 19 µM (inactive) | 22.3 µM (inactive) | 29.9 µM (inactive) | 20.7 µM (inactive) | 23 µM (inactive) | 26.9 µM (inactive) | 13.5 µM (inactive) | 23.9 µM (inactive) | 25.8 µM (inactive) | –
COc1ccc(C(=O)OCC2OC(n3cnc4c(=S)nc[nH]c43)C(OC(=O)c3ccc(OC)cc3)C2OC(=O)c2ccc(OC)cc2)cc1 (configuration not stated) | 26.2 µM (inactive) | 3.27 µM (inactive) | 20.5 µM (inactive) | 24.9 µM (inactive) | – | – | 9.35 µM (inactive) | 8.47 µM (inactive) | 10.5 µM (inactive) | – | 3.18 µM (inactive) | – | 30.1 µM (inactive) | – | – | – | – | – | – | –
NC1=NN(c2ccccc2)C(=O)C1C(=O)C(=O)Nc1ccc(Cl)cc1 (configuration not stated) | > 100 µM (inactive) | > 100 µM (inactive) | > 100 µM (inactive) | > 100 µM (inactive) | > 100 µM (inactive) | > 100 µM (inactive) | > 100 µM (inactive) | > 100 µM (inactive) | > 100 µM (inactive) | > 100 µM (inactive) | > 100 µM (inactive) | > 100 µM (inactive) | > 100 µM (inactive) | – | – | – | – | – | – | –
CC(C)c1cccc2sc(NC(=O)C(=O)C(C#N)c3cccc4ccccc34)nc12 (configuration not stated) | 30.5 µM (inactive) | – | 20.7 µM (inactive) | 77.4 µM (inactive) | 73.3 µM (inactive) | 93.1 µM (inactive) | 65.8 µM (inactive) | > 100 µM (inactive) | 76.9 µM (inactive) | 61.2 µM (inactive) | 99.8 µM (inactive) | > 100 µM (inactive) | > 100 µM (inactive) | – | – | – | – | – | – | –
CCCCCCCC(=O)OC[C@@H](C[As](=O)(O)O)OC(=O)CCCCCCC | 2.98 µM (inactive) | 13.8 µM (inactive) | 10.5 µM (inactive) | 14.1 µM (inactive) | 11.2 µM (inactive) | 10.4 µM (inactive) | 15.7 µM (inactive) | 16.9 µM (inactive) | 10.6 µM (inactive) | 18.2 µM (inactive) | 18.7 µM (inactive) | 11.2 µM (inactive) | 5.85 µM (inactive) | – | – | – | – | – | – | –
COC(=O)C1=C(C)N2CCCOC2(C)C(C(=O)OC)C1c1cccc(Cl)c1 (configuration not stated) | 16.4 µM (inactive) | 27.2 µM (inactive) | 27.8 µM (inactive) | 22.2 µM (inactive) | – | – | 35.3 µM (inactive) | 24.4 µM (inactive) | 25 µM (inactive) | – | 20.7 µM (inactive) | – | 32.8 µM (inactive) | – | – | – | – | – | – | –
CCCCCCCC/C=C/CCCCCCCC(=O)N(O)C1CC(n2cc(C)c(=O)[nH]c2=O)OC1CO (configuration not stated) | – | 0.488 µM (active) | 11.6 µM (inactive) | 10.2 µM (inactive) | 18.3 µM (inactive) | 18 µM (inactive) | 10.6 µM (inactive) | 3.56 µM (inactive) | 8.53 µM (inactive) | 3.65 µM (inactive) | 6.25 µM (inactive) | 10.6 µM (inactive) | 11 µM (inactive) | – | – | – | – | – | – | –
CC(C)c1cccc(C(C)C)c1NC(=O)C(=O)C1CCC2=C(Sc3ccccc3N2)C1=O (configuration not stated) | 74.1 µM (inactive) | 34.9 µM (inactive) | 31.3 µM (inactive) | 58.5 µM (inactive) | > 100 µM (inactive) | > 100 µM (inactive) | > 100 µM (inactive) | 86.3 µM (inactive) | 48.9 µM (inactive) | > 100 µM (inactive) | > 100 µM (inactive) | 28.8 µM (inactive) | > 100 µM (inactive) | – | – | – | – | – | – | –
OCC12C=CC(C1)c1ccccc12 (configuration not stated) | > 100 µM (inactive) | > 100 µM (inactive) | – | > 100 µM (inactive) | > 100 µM (inactive) | – | > 100 µM (inactive) | > 100 µM (inactive) | > 100 µM (inactive) | > 100 µM (inactive) | > 100 µM (inactive) | > 100 µM (inactive) | > 100 µM (inactive) | – | – | – | – | – | – | –
O=S(O)c1cc(Cl)c(O)c(Cl)c1 | > 100 µM (inactive) | > 100 µM (inactive) | > 100 µM (inactive) | > 100 µM (inactive) | > 100 µM (inactive) | > 100 µM (inactive) | > 100 µM (inactive) | – | > 100 µM (inactive) | – | > 100 µM (inactive) | > 100 µM (inactive) | > 100 µM (inactive) | – | – | – | – | – | – | > 100 µM (inactive)
ClC1CCC2OOC1O2 (configuration not stated) | 32.2 µM (inactive) | > 100 µM (inactive) | > 100 µM (inactive) | 89.5 µM (inactive) | > 100 µM (inactive) | > 100 µM (inactive) | > 100 µM (inactive) | > 100 µM (inactive) | 61.1 µM (inactive) | – | > 100 µM (inactive) | > 100 µM (inactive) | > 100 µM (inactive) | – | – | – | – | – | – | –
CCC1(O)C[C@H]2CN(CCCc3c([nH]c4ccccc34)[C@@](C(=O)OC)(c3cc4c(cc3OC)N(C)C3[C@](O)(C(=O)OC)[C@H](OC(C)=O)[C@]5(CC)C=CCN6CC[C@]43[C@H]65)C2)C1 (some centres not stated) | 0.621 µM (active) | 0.354 µM (active) | 0.991 µM (active) | 0.425 µM (active) | 1.21 µM (inactive) | 0.543 µM (active) | 1.75 µM (inactive) | 0.298 µM (active) | 0.855 µM (active) | 0.146 µM (active) | 0.465 µM (active) | 3.61 µM (inactive) | 1.01 µM (active) | – | – | – | – | – | – | –
CCCCOc1ccc(CC(NC(=O)OC(C)(C)C)C(=O)NC(C)C(=O)NC(Cc2ccccc2)C(=O)NCC(N)=O)cc1 (configuration not stated) (Boc-Y(nBu)AFG-NH2; configuration not given here) | 22 µM (inactive) | > 100 µM (inactive) | > 100 µM (inactive) | > 100 µM (inactive) | > 100 µM (inactive) | – | > 100 µM (inactive) | – | > 100 µM (inactive) | – | > 100 µM (inactive) | > 100 µM (inactive) | > 100 µM (inactive) | > 100 µM (inactive) | > 100 µM (inactive) | > 100 µM (inactive) | > 100 µM (inactive) | 82.4 µM (inactive) | > 100 µM (inactive) | –
CC1NC(=O)C(NC(=O)c2cnc3ccccc3n2)COC(=O)C(C(C)C)N(C)C(=O)C2CSSCC(C(=O)N(C)C(C(C)C)C(=O)OCC(NC(=O)c3cnc4ccccc4n3)C(=O)NC(C)C(=O)N2C)N(C)C1=O (configuration not stated) (I: Quinoxaline2carbonyl-SA[NMeC][NMeV] / II: Quinoxaline2carbonyl-SA[NMeC][NMeV]; ester I:1-II:C, I:C-II:1; disulfide I:3-II:3; configuration not given here) | < 0.01 µM (active) | < 0.01 µM (active) | < 0.01 µM (active) | < 0.01 µM (active) | < 0.01 µM (active) | – | < 0.01 µM (active) | – | < 0.01 µM (active) | – | < 0.01 µM (active) | < 0.01 µM (active) | < 0.01 µM (active) | < 0.01 µM (active) | < 0.01 µM (active) | < 0.01 µM (active) | < 0.01 µM (active) | < 0.01 µM (active) | < 0.01 µM (active) | –
CC(=O)O[C@]1(C(C)=O)CC[C@H]2[C@@H]3C[C@H](C)C4=CC(=O)C=C[C@]4(C)[C@@]3(F)[C@@H](O)C[C@@]21C [FLUOROMETHOLONE ACETATE] | 37.6 µM (inactive) | 48.1 µM (inactive) | > 100 µM (inactive) | 56.1 µM (inactive) | – | 72.6 µM (inactive) | > 100 µM (inactive) | > 100 µM (inactive) | > 100 µM (inactive) | – | > 100 µM (inactive) | – | 36.2 µM (inactive) | – | – | – | – | – | – | 38.3 µM (inactive)
CO[C@@]12[C@H](COC(N)=O)C3=C(C(=O)C(C)=C(N)C3=O)N1C[C@@H]1N[C@@H]12 [MITOMYCIN] | 0.204 µM (active) | 2.03 µM (inactive) | – | 0.759 µM (active) | 0.714 µM (active) | – | 0.614 µM (active) | 1.3 µM (inactive) | 0.701 µM (active) | 1.1 µM (active) | – | – | – | 4.74 µM (inactive) | 3.22 µM (inactive) | – | 1.75 µM (inactive) | 5.71 µM (inactive) | 2.24 µM (inactive) | –
